# Patent US20260373248A1, “DEGRADABLE PEPTOIDS” (Medici Therapeutics, Inc., priority 2023, published 2026)
# Non-standard residues stand in square brackets, D forms with d. Residues, ends and D or L forms follow the SMILES beside them. *: point of attachment. Gly(N-(3-decanoyloxypropyl)) = CCCCCCCCCC(=O)OCCCNCC(=O)O; N(3-lauroyloxypropyl)Gly = CCCCCCCCCCCC(=O)OCCCNCC(=O)O; Gly(N-(CH2)3O-octanoyl) = CCCCCCCC(=O)OCCCNCC(=O)O; N(3-imidazol-1-ylpropyl)Gly = O=C(O)CNCCCn1ccnc1; Gly(N-3-morpholinopropyl) = O=C(O)CNCCCN1CCOCC1; N(2-ethylhexyl)Gly = CCCCC(CC)CNCC(=O)O; NDecylGly = CCCCCCCCCCNCC(=O)O; NHexGly = CCCCCCNCC(=O)O; For = O=C*
# Experiments:
# [1] = system: luciferase; assay: Luciferase expression after local (intramuscular or subcutaneous) administration of mRNA; format: in vivo; details: mRNA 0.01 mpk, 6 hours; for IM Flux: intramuscular; for SC Flux: subcutaneous
# Description: (§1) All animal studies were conducted under accreditation by the California State Department of Public Health and under supervision of IACUC and Veterinarian Supervision. For imaging studies, female Balb/c mice (6-8 weeks old) were obtained and acclimatized for a minimum of 3 days prior to experiments. The animals were maintained on a 12 hour light cycle in a temperature and humidity controlled room. A daily health check was performed as well as food and water check. For dosing, mice were injected with 2.5 ug fLuc mRNA-containing Nutshells intravenously in 100 μL total injection value. At 6 hours post-injection, mice were anesthetized with isoflurane, injected IP with 30 mg/mL D-luciferin at a dose of 10 μL per gram bodyweight intraperitoneally. Imaging was done 10 minutes post D-luciferin injection using an IVIS Spectrum Imaging System (Caliper Life Sciences). Immediately after in vivo imaging, mice were terminally bled by cardiac puncture and euthanized. The organs of interest were harvested, placed in black 24-well plates, and imaged. Living Image software (Perkin Elmer) was used to quantify the total photon flux in regions of interest.
# Aminolipidated peptoids were also effective for local administration of mRNA through subcutaneous (S.C.) or intramuscular (I.M.) routes of administration. For these examples, mRNA was administered at a dose of 0.1 mpk for intratomoral, or 0.01 mpk for subcutaneous and intramuscular administration, and the resulting bioluminescence quantified after 6 hours according to a similar procedure as described in Example 4.
# [2] = system: firefly luciferase; assay: In vivo firefly luciferase expression after intravenous injection of fLuc mRNA delivery vehicles (IVIS imaging); design: species or system female Balb/c mice; details: mice, 2.5 ug fLuc mRNA intravenously, 6 hours post-injection
# Description: as §1
# Luciferase expression in these formulations was also determined as described in Example 4.
# [3] = Delivery vehicle size and polydispersity by dynamic light scattering; format: physicochemical; details: DLS in PBS; peptoid:DSPC:Cholesterol:DMG-PEG2000 weight ratio 20:1.79:7.16:1.84, mRNA
# Description: Delivery vehicles were formulated by rapid microfluidic mixing using a high throughput microfluidic system. Briefly, ethanol solutions containing peptoid, DSPC, Cholesterol, DMG-PEG2000 at weight ratio of 20:1.79:7.16:1.84, were mixed with 10 mM sodium citrate buffer (pH 5.0) containing synthesized mRNA at a ratio of 1:3 by volume. Peptoid based LNPs were subsequently dialyzed against 1-2 liters of tris-sucrose buffer (TS7, pH 7.4) overnight at 4 °C. Delivery vehicle size and polydispersity (PDI) was measured by dynamic light scattering in PBS.
# (§2) Degradable peptoids described herein were formulated as various formulations described in Table 3 according to the procedure described in Example 2. Particle size was characterized as described in Example 2, and […] encapsulation of mRNA was determined as described in Example 3.
# [4] = system: hEPO; assay: Quantification of hEPO in serum after IV injection of mRNA (Human EPO ELISA); format: in vivo; details: Balb/c mice, 2.5 μg mRNA IV, serum after 6 hours
# Description: Balb/c mice were treated with 2.5 μg of mRNA coding for human erythropoiten via IV injection according to a similar method as in Example 4. hEPO protein in the serum was quantified after 6 hours using the Human EPO ELISA Kit from Invitrogen (catalog #BMS2035-2). Wash buffer (PBS with 1% tween 20) and assay buffer (PBS with 1% tween 20, 10% BSA) were prepared from a 20× concentrate with milli-Q water. Serum samples were diluted with PBS according to expected EPO concentration, with a 50× dilution for low expression samples and up to a 30,000× dilution for samples expected to have high expression. Microwell strips were washed in a plate washer with wash buffer and tapped on an absorbent pad to remove excess buffer. 100 μL of sample diluent were added to each well that will be used for the standard curve. 50 μL of sample diluent was added to each sample well.
# The standard curve was prepared by reconstituting the human erythropoietin standard by adding the volume of water listed on the vial label. Standard was swirled gently and allowed to reconstitute for 10 minutes prior to use, then 100 μL is added to standard wells and mixed well. 100 μL from standard wells were then transferred to sample wells and mixed well. This was repeated 5 times to produce 2 columns of standard dilutions from 100 to 1.6 mIU/mL. 100 μL was discarded from the last microwells. The final 2 wells contained 100 μL of sample diluent and served as a blank. An external standard was also included to facilitate a mIU/mL conversion to ng/mL. The same serial dilution method was repeated starting with the external standard at 6.25 ng/mL. Once the standards were added, 50 μL of each sample was added in duplicate to the sample wells. Next, the biotin-conjugate was prepared by diluting 1:100 in assay buffer. 50 μL of biotin-conjugate was added to all wells and the plate was covered with a plate seal and shaken at room temperature for 1 hour. During the last few minutes of shaking, streptavidin-HRP was prepared by diluting 1:100 in assay buffer. The plate was washed on a plate washer and tapped on an absorbent pad to remove remaining wash buffer.
# 100 μL of the diluted streptavidin-HRP was added to each well and the plate was sealed and shaken for 15 minutes at room temperature. After 15 minutes, the plate seal was removed and the plate was washed on a plate washer and remaining wash buffer tapped out on an absorbent pad. 100 μL of TMB substrate was added to all wells and the plate was incubated for 10 minutes at room temperature out of direct light. Color development was checked every few minutes and the assay was stopped when the highest standard was dark blue. The reaction was stopped by pipetting 100 μL of stop solution into each well. Immediately after stop solution was added, the plate was gently tapped to ensure the solution was mixed. Absorbance was then read at 450 nm for each well. A standard curve was plotted for both the kit-provided standards (mIU/mL) and the external standard (ng/mL) and fit using Prism. Sample absorbances that fell within the standard curve were interpolated and adjusted for dilution (including a 2× assay dilution). Samples that were not within the standard curve were repeated at an adjusted dilution.
# [5] = system: mRNA; assay: mRNA encapsulation (modified Quant-iT RiboGreen assay); format: physicochemical; details: RiboGreen, without vs with Triton X-100
# Description: The mRNA concentration and the percentage of encapsulated mRNA were determined using fluorescent-based Quant-iT RiboGreen RNA Reagent Kit (Life Technologies, Waltham, MA) as described previously. To determine the mRNA concentration, PNPs was incubated with […] for 10 min to release entrapped mRNA, followed by addition of RiboGreen RNA reagent. The fluorescence intensity of mRNA-RiboGreen reagent complex (excitation at 485 nm and emission at 530 nm) was detected using a microplate reader. The ratio of fluorescence without and with Triton X-100 were used to calculate the percentage of encapsulated mRNA.
# as §2
Structure (SMILES),PDI [3],Particle Size [3] [nm],mean percent encapsulation of RNA [5] [%],IM Flux [1] [p/s],SC Flux [1] [p/s],Total Flux [2] [p/s],hEPO [4] [ng/mL]
CCCCCCCCCCCC(=O)OCCCN(C=O)CC(=O)N(CCCOC(=O)CCCCCCCCCCC)CC(=O)N(CC(=O)N(CCCN1CCOCC1)CC(=O)N(CC(=O)N(CCCOC(=O)CCCCCCCCCCC)CC(=O)N(CCCOC(=O)CCCCCCCCCCC)CC(N)=O)CC(CC)CCCC)CC(CC)CCCC (centres unmarked) [Compound 91] (For-[N(3-lauroyloxypropyl)Gly][N(3-lauroyloxypropyl)Gly][N(2-ethylhexyl)Gly][Gly(N-3-morpholinopropyl)][N(2-ethylhexyl)Gly][N(3-lauroyloxypropyl)Gly][N(3-lauroyloxypropyl)Gly]-NH2),,,,2.44E+08,4.22E+07,,17.4
CCCCCCCC(=O)OCCCN(C=O)CC(=O)N(CCCOC(=O)CCCCCCC)CC(=O)N(CCc1ccccc1)CC(=O)N(CC(=O)N(CCCn1ccnc1)CC(=O)N(CCCOC(=O)CCCCCCC)CC(=O)N(CCc1ccccc1)CC(=O)N(CCCOC(=O)CCCCCCC)CC(=O)N(CC(N)=O)CC(CC)CCCC)CC(CC)CCCC (centres unmarked) [Compound 123],0.201,118.1,56.3,6.45E+06,1.01E+07,,172
CCCCCCCC(=O)OCCCN(C=O)CC(=O)N(CCCOC(=O)CCCCCCC)CC(=O)N(CCc1ccccc1)CC(=O)N(CC(=O)N(CCCN1CCOCC1)CC(=O)N(CCCOC(=O)CCCCCCC)CC(=O)N(CCc1ccccc1)CC(=O)N(CCCOC(=O)CCCCCCC)CC(=O)N(CC(N)=O)CC(CC)CCCC)CC(CC)CCCC (centres unmarked) [Compound 125],0.111,86.2,82.1,9.45E+07,8.55E+07,2.12E+09,13.4

# Further lines, with some results ahead:
PDI [3],Particle Size [3] [nm],mean percent encapsulation of RNA [5] [%],Structure (SMILES),IM Flux [1] [p/s],SC Flux [1] [p/s],Total Flux [2] [p/s],hEPO [4] [ng/mL]
0.178,87.2,79.7,CCCCCCCCCCCC(=O)OCCCN(CC(=O)N(CCCOC(=O)CCCCCCCCCCC)CC(=O)N(CC(=O)N(CCCOC(=O)CCCCCCCCCCC)CC(=O)N(CCCOC(=O)CCCCCCCCCCC)CC(=O)N(CC(N)=O)CC(CC)CCCC)CC(CC)CCCC)C(=O)CNCCCn1ccnc1 (centres unmarked) [Compound 68] (H-[N(3-imidazol-1-ylpropyl)Gly][N(3-lauroyloxypropyl)Gly][N(3-lauroyloxypropyl)Gly][N(2-ethylhexyl)Gly][N(3-lauroyloxypropyl)Gly][N(3-lauroyloxypropyl)Gly][N(2-ethylhexyl)Gly]-NH2),5.10E+06,3.39E+08,4.20E+08,72.6
0.238,86.9,13.1,CCCCCCCCCCCC(=O)OCCCN(CC(=O)N(CCCOC(=O)CCCCCCCCCCC)CC(=O)N(CCCCCC)CC(=O)N(CCCOC(=O)CCCCCCCCCCC)CC(=O)N(CCCOC(=O)CCCCCCCCCCC)CC(=O)N(CCCCCC)CC(N)=O)C(=O)CN(C=O)CCCN1CCOCC1 [Compound 71] (For-[Gly(N-3-morpholinopropyl)][N(3-lauroyloxypropyl)Gly][N(3-lauroyloxypropyl)Gly][NHexGly][N(3-lauroyloxypropyl)Gly][N(3-lauroyloxypropyl)Gly][NHexGly]-NH2),3.61E+08,9.18E+07,4.43E+08,38.1
0.245,119.7,40.7,CCCCCCCCCCN(C=O)CC(=O)N(CCCOC(=O)CCCCCCC)CC(=O)N(CC(=O)N(CCCn1ccnc1)CC(=O)N(CC(=O)N(CCCOC(=O)CCCCCCC)CC(=O)N(CCCCCCCCCC)CC(N)=O)CC(CC)CCCC)CC(CC)CCCC (centres unmarked) [Compound 114] (For-[NDecylGly][Gly(N-(CH2)3O-octanoyl)][N(2-ethylhexyl)Gly][N(3-imidazol-1-ylpropyl)Gly][N(2-ethylhexyl)Gly][Gly(N-(CH2)3O-octanoyl)][NDecylGly]-NH2),9.30E+07,1.03E+08,2.06E+08,23.7
0.156,78.4,49.8,CCCCCCCCCCN(C=O)CC(=O)N(CCCOC(=O)CCCCCCCCC)CC(=O)N(CC(=O)N(CCCN1CCOCC1)CC(=O)N(CC(=O)N(CCCOC(=O)CCCCCCCCC)CC(=O)N(CCCCCCCCCC)CC(N)=O)CC(CC)CCCC)CC(CC)CCCC (centres unmarked) [Compound 117] (For-[NDecylGly][Gly(N-(3-decanoyloxypropyl))][N(2-ethylhexyl)Gly][Gly(N-3-morpholinopropyl)][N(2-ethylhexyl)Gly][Gly(N-(3-decanoyloxypropyl))][NDecylGly]-NH2),2.10E+08,6.43E+08,5.14E+09,685
